Tests used:
Format in all cases: functional
Rattus norvegicus [1] = experiment: Antihypertensive activity was measured for systolic pressure using spontaneous hypertensive rats (SHR) at 50 mg/kg after oral administration
Rattus norvegicus [2] = experiment: Antihypertensive activity was measured for systolic pressure using spontaneous hypertensive rats (SHR) at 25 mg/kg after oral administration
Rattus norvegicus [3] = experiment: Antihypertensive activity was measured for systolic pressure using spontaneous hypertensive rats (SHR) at 10 mg/kg after oral administration
Rattus norvegicus [4] = experiment: Antihypertensive activity was measured for systolic pressure using spontaneous hypertensive rats (SHR) at 50 mg/kg

Structure (SMILES)	Change in systolic pressure (Rattus norvegicus [1]) [mmHg]	Change in systolic pressure (Rattus norvegicus [2]) [mmHg]	Change in systolic pressure (Rattus norvegicus [3]) [mmHg]	Change in systolic pressure (Rattus norvegicus [4]) [mmHg]
O=S(=O)(c1ccccc1)N1CCN(c2ccccc2)CC1	26	33		
Clc1ccc(N2CCN(Sc3ccccc3)CC2)cc1	44	23.5		
c1ccc(SN2CCC(c3ccccc3)CC2)cc1	-9			
FC(F)(F)c1cccc(N2CCN(Sc3ccccc3)CC2)c1	6			
Clc1ccccc1N1CCN(Sc2ccccc2)CC1	28			
c1ccc(SN2CCN(c3ccccn3)CC2)cc1	40	65		
c1ccc(CN2CCN(Sc3ccccc3)CC2)cc1	17	23		
O=S(=O)(c1ccccc1)N1CCN(c2ccccn2)CC1	5			
c1ccc(SN2CCN(c3ccccc3)CC2)cc1		90	16.5	
COc1ccccc1N1CCN(Sc2ccccc2)CC1	71	27		
Cc1ccccc1N1CCN(Sc2ccccc2)CC1	8			
Cc1ccc(C(=O)C2CCN(Sc3ccccc3)CC2)cc1	7			
c1ccc(COC2(c3ccccc3)CCN(Sc3ccccc3)CC2)cc1				2
Brc1ccc(OC2CCN(Sc3ccccc3)CC2)cc1	-15			
Cc1cccc(N2CCN(Sc3ccccc3)CC2)c1			16	
c1ccc(SN2CCC3(CC2)OC(c2ccccc2)c2ccccc23)cc1 (stereo not drawn)	-66	-44		
COc1ccc(N2CCN(Sc3ccccc3)CC2)cc1		7		
[O-][S+](c1ccccc1)N1CCN(c2ccccn2)CC1 (stereo not drawn)	80	59	36	
[O-][S+](c1ccccc1)N1CCN(c2ccccc2)CC1 (stereo not drawn)	83	42	22	
N=C(N)NCCN1CCCCCCC1 [GUANETHIDINE]			34	
O=C(c1ccccc1)C1CCN(Sc2ccccc2)CC1		-14		
COc1cccc(N2CCN(Sc3ccccc3)CC2)c1	35			
